Experimental data taken from US12692254B2, “Benzimidazole inhibitors of PAD enzymes” (BRISTOL-MYERS SQUIBB COMPANY, priority 2018, dated 2026).

Target: human PAD4 (hPAD4) (Homo sapiens, UniProt Q9UM07)
Assay: RFMS human PAD4 functional assay (rapid-fire mass spectrum)
Assay type: biochemical
Conditions: 5 nM hPAD4 enzyme, 250 μM BAEE, 50 μM Calcium; 30 min preincubation, 90 min reaction at 37° C.
Protocol: Compounds of the present invention were assayed as inhibitors of PAD4 using the assay protocol described below.
RFMS tinman PAD4 Functional Assay:
Compounds were solubilized in 100% DMSO to achieve a 10 mM compound concentration. Compound stock solutions were stored at RT. A series of dilutions were prepared in DMSO and mixed 8 times with 20 μl, mixing volume. Final top concentration of compound in the assay is 50 μM. […] 1-90 min enzyme/substrate reaction, 30 min reaction with phenyl glyoxal at 37° C. • Stop solution: 40 μl 5% TCA in ACN
0.13 μL of compound solution was added to 13 μL of 10 nM PAD4 in assay buffer. After 30 min 13 μl of 500 μM of BAEE was added in 25 mM hepes, pH 7.5, 5 mM NaCl, 1 mM DTT, 0.2 mg/ml BS A, 0.01% CHAPS, 50 μM Calcium, 5 μM TPEN was added and the reaction incubated for 90 min at 37° C. The enzymatic reaction was quenched by addition of 15 μl of 6.1N TCA, 100% Final Concentration is 20%, 35 μl of 8.5 mM phenyl glyoxal (final concentration 4 mM) is then added and the reaction is incubated for 30 min at 37° C.
After 30 minutes the plates are spun down to remove all precipitate. The enzyme reaction was quenched with an equal volume of methanol containing internal standard (modified citrulline). Samples were loaded onto the Rapid Fire RF300 system (Agilent) wherein they were first sipped for 1000 ms and then directly loaded to a C18 separations cartridge using a mixture of acetonitrile containing 0.01% formic acid for 3000 ms desalting. The flow rate of the mobile phase was 1.5 ml/min.
The dwell time for each transition was set at 200 ms, and the ESI voltage was used at 5500 with a source temperature of 400° C. Extracted ion peaks for each transition were integrated using the Rapid Fire Integrator software. Peak area of analyte was normalized with internal standard).

Sequence of human PAD4 (hPAD4) (Q9UM07 whole entry): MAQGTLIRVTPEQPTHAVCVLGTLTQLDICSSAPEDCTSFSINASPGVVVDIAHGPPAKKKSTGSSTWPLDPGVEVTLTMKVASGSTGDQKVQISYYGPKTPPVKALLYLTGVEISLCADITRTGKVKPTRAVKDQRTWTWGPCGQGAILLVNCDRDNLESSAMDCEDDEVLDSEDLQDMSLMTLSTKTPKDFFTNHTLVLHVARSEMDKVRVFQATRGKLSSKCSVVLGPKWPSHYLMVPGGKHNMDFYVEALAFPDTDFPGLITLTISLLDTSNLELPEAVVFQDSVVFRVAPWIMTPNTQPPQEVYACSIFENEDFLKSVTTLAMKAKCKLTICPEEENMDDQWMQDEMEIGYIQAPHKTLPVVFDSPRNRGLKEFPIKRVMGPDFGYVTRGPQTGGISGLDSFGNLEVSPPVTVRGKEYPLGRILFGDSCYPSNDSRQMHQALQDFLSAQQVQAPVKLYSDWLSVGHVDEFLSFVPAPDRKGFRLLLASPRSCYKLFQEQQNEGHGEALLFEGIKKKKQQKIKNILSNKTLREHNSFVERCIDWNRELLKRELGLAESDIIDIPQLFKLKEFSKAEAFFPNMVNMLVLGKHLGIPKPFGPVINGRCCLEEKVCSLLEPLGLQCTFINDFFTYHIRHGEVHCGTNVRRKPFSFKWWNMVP

Row | SMILES | IC50
1 | COc1cc(C(=O)N2C[C@H](N)C[C@@H](F)C2)cc2nc(-c3cc4ccccc4n3CC3CC3)n(Cc3cn(C)nc3C)c12 [Example 512, (3R,5R)-1-{2-[1-(cyclopropylmethyl)-1H-indol-2-yl]-1-[(1,3-dimethyl-1H-pyrazol-4-yl)methyl]-7-methoxy-1H-1,3-benzodiazole-5-carbonyl}-5-fluoropiperidin-3-amine] | 373 nM
2 | COc1cc(C(=O)N2CC3CCC2[C@@H]3N)cc2nc(-c3cc4ccccc4n3CC3CC3)n(CC3CN(C(=O)[C@H]4C[C@@H]4C)C3)c12 (stereo partly drawn) [Example 172, (1R,4R,7R)-2-{2-[1-(cyclopropylmethyl)-1H-indol-2-yl]-7-methoxy-1-({1-[(1S,2S)-2-methylcyclopropanecarbonyl]aze-tidin-3-yl}methyl)-1H-1,3-benzodiazole-5-carbonyl}-2-azabicyclo[2.2.1]heptan-7-amine] | 42 nM
3 | COc1cc(C(=O)N2C[C@H]3CC[C@@H]2[C@@H]3N)cc2nc(-c3cc4ccccc4n3CC3CC3)n(CC3CN(C(=O)C4CCCC4)C3)c12 [Example 144, (1R,4R,7R)-2-{1-[(1-cyclopentanecarbonylazetidin-3-yl)methyl]-2-[1-(cyclopropylmethyl)-1H-indol-2-yl]-7-methoxy-1H-1,3-benzodiazole-5-carbonyl}-2-azabicyclo[2.2.1]heptan-7-amine] | 17 nM
4 | CC#CC(=O)N1CC(Cn2c(-c3cc4cccnc4n3CC3CC3)nc3cc(C(=O)N4C[C@H]5CC[C@@H]4[C@@H]5N)cc(OC)c32)C1 [Example 104, 1-[3-({5-[(1R,4R,7R)-7-amino-2-azabicyclo[2.2.1]heptane-2-carbonyl]-2-[1-(cyclopropylmethyl)-1H-pyrrolo[2,3-b]pyridin-2-yl]-7-methoxy-1H-1,3-benzodiazol-1-yl}methyl)azetidin-1-yl]but-2-yn-1-one] | 27 nM
5 | COc1cc(C(=O)N2CC3CCC2[C@@H]3N)cc2nc(-c3cc4ccccc4n3CC3CC3)n(Cc3cnn(-c4ccc(O)nc4)c3)c12 (stereo partly drawn) [Example 399, 5-[4-({5-[(7R)-7-amino-2-azabicyclo[2.2.1]heptane-2-carbonyl]-2-[1-(cyclopropylmethyl)-1H-indol-2-yl]-7-methoxy-1H-1,3-benzodiazol-1-yl}methyl)-1H-pyrazol-1-yl]pyridin-2-ol] | 57 nM
6 | COc1cc(C(=O)N2C[C@H]3CC[C@@H]2[C@@H]3N)cc2nc(-c3cc4ccccc4n3CC3CC3)n(Cc3cc(C)nn3C)c12 [Example 252, (1R,4R,7R)-2-{2-[1-(cyclopropylmethyl)-1H-indol-2-yl]-1-[(1,3-dimethyl-1H-pyrazol-5-yl)methyl]-7-methoxy-1H-1,3-benzodiazole-5-carbonyl}-2-azabicyclo[2.2.1]heptan-7-amine] | 22 nM
7 | COc1cc(C(=O)N2CC3CCC2[C@@H]3N)cc2nc(-c3cc4ccccc4n3CC3CC3)n(CC3CCS(=O)(=O)C3)c12 (mixture of isomers) [Example 258, rac-((7R)-7-amino-2-azabicyclo[2.2.1]heptan-2-yl)(2-(1-(cyclopropylmethyl)-1H-indol-2-yl)-1-((1,1-dioxidotetrahydrothiophen-3-yl)methyl)-7-methoxy-1H-benzo[d]imidazol-5-yl)methanone] | 43 nM
8 | COC(=O)N1CC(n2c(-c3cc4cccnc4n3CC3CC3)nc3cc(C(=O)N4C[C@H]5CC[C@@H]4[C@@H]5N)cc(OC)c32)C1 [Example 188, methyl 3-{5-[(1R,4R,7R)-7-amino-2-azabicyclo[2.2.1]heptane-2-carbonyl]-2-[1-(cyclopropylmethyl)-1H-pyrrolo[2,3-b]pyridin-2-yl]-7-methoxy-1H-1,3-benzodiazol-1-yl}azetidine-1-carboxylate] | 393 nM
9 | COc1cc(C(=O)N2C[C@H](N)C[C@@H](F)C2)cc2nc(-c3cc4ccccc4n3CC3CC3)n(CCC3CCS(=O)(=O)CC3)c12 [Example 249, ((3R,5R)-3-amino-5-fluoropiperidin-1-yl)(2-(1-(cyclopropylmethyl)-1H-indol-2-yl)-1-(2-(1,1-dioxidotetrahydro-2H-thiopyran-4-yl)ethyl)-7-methoxy-1H-benzo[d]imidazol-5-yl)methanone] | 35 nM
